Measured values from ChEMBL document CHEMBL3882243, “Biphenyl compounds useful as muscarinic receptor antagonists” (2005).
pKi: −log10 of the molar value.

Tests used:
[1] = test system: Cavia porcellus; experiment: Bronchoprotective activity in Dunkan-Hartley guinea pig model of acetylcholine-induced bronchoconstriction assessed as efficacious dose that limited bronchrestriction response to 50 ug/mL dose of acetylcholine to doubling of baseline pulmonary resistance administered via nebulization for 10 mins measured at 1.5 hrs post dose by whole body plethysmography; type: functional
[2] = target: Muscarinic acetylcholine receptor M3 (Homo sapiens, UniProt P20309); experiment: Displacement of [3H]-NMS from human recombinant M3 receptor expressed in CHO cell membranes measured after 60 mins by topcount liquid scintillation counting
Sequence of Muscarinic acetylcholine receptor M3 (P20309 whole entry): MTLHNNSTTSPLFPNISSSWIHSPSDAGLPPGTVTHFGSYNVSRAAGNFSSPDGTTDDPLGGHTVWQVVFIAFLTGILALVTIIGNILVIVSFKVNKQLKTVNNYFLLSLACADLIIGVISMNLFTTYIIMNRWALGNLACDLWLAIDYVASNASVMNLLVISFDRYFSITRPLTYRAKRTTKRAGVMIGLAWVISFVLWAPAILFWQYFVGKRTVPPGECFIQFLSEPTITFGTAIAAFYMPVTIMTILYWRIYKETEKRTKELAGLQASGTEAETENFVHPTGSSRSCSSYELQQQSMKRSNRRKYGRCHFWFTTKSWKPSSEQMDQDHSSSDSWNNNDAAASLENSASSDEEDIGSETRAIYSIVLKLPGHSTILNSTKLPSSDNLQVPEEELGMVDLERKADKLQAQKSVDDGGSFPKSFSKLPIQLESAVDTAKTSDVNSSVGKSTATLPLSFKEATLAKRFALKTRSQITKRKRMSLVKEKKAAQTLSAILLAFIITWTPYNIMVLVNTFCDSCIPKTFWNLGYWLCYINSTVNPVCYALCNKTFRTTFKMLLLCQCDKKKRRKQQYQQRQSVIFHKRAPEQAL

SMILES	ED [1] [µg/mL]	pKi [2]
CN(CCN1CCC(OC(=O)Nc2ccccc2-c2ccccc2)CC1)C(=O)c1ccc(CN2CCC(C(N)=O)CC2)cc1 [REVEFENACIN]	<200	–
CCN(CCN1CCC(OC(=O)Nc2ccccc2-c2ccccc2)CC1)C(=O)c1ccc(CN2CCC(C(N)=O)CC2)cc1	–	> 8.30
